Data: patent US12661342B2, “Heteroaryl compounds and therapeutic uses thereof in conditions associated with the alteration of the activity of beta-glucocerebrosidase” (GT GAIN THERAPEUTICS SA, priority 2019, dated 2026)

target: T1, β-glucocerebrosidase (Homo sapiens, UniProt P04062, L483P); test: Enhancement of β-glucocerebrosidase activity measured in Gaucher disease fibroblasts (4-MU-β-D-glucopyranoside substrate, intact cells); type: cell-based; parameters: key: Increase in comparison with non-treated of >2.0 fold is shown as A; Increase in comparison with non-treated of >1.7-2.0 fold is shown as B; Increase in comparison with non-treated of 1.2-1.7 fold is shown as C; D means that no increase compared with non-treated cells was detected in this method; conditions: GBA fibroblasts bearing L444P (GM08760A, homozygous p.L444P); compound at concentrations between 6 and 50 μM; 4 days incubation
T1 construct: host or cells: human Gaucher disease patient fibroblasts GM08760A
T1 sequence (P04062 40-536 L483P): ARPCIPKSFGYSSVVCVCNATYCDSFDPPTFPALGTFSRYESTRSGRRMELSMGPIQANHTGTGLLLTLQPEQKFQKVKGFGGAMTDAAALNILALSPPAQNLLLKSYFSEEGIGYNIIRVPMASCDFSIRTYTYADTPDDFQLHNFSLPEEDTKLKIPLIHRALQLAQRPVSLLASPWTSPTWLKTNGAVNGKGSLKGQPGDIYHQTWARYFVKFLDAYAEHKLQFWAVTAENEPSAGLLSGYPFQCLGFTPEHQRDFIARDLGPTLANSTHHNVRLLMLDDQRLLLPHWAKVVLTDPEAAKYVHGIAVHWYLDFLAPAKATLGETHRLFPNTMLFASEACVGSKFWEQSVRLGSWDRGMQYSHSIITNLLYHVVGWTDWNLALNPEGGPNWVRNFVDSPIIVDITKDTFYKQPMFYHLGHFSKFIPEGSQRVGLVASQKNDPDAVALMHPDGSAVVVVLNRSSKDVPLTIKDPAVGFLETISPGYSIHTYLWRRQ
Experimental: Human fibroblasts from a patient with Gaucher disease homozygous for p.L444P mutation (GM08760A) were purchased from Coriell Institute for Medical Research (Camden, NJ, USA).
Fibroblasts were seeded at 5×10^3 cells per well in 96-well cell culture plates (Corning, NY, USA) in Dulbecco's Modified Eagle's Media (DMEM) supplemented with 10% of fetal bovine serum (FBS), 1% penicillin/streptomycin (P/S) (Thermo Fisher Scientific, Waltham, MA, USA) and grown at 37° C., 5% CO2 overnight for cell attachment. Subsequently, cells were incubated in the absence or presence of the compounds at the desired concentration for 4 days. After incubation, cells were washed twice with phosphate-buffered saline (PBS) and enzyme activity assay was performed.
β-glucocerebrosidase activity in intact cultured cells was measured by using 4-methylumbelliferyl-β-D-glucopyranoside substrate (Apollo Scientific, UK). Briefly, cells were incubated with 4-MU-β-D-glucopyranoside in 0.1 M acetate buffer pH=4 at 37° C. for 1 hour. The reaction was stopped by adding 200 μL at 100 mM glycine-NaOH pH=10.7. The liberated 4-MU was measured on a GloMax Discover plate reader (Promega, Madison, WI, USA) with and excitation at 340 nm and emission at 460 nm. Enzyme activities were expressed in treated cells as X-fold increase in comparison with non-treated cells (X=1 represents no enhancement).
The capacity of the compounds of the disclosure to produce an increase in enzyme activity in GBA fibroblasts bearing L444P at concentrations between 6 and 50 μM is denoted as follows: • Increase in comparison with non-treated of >2.0 fold is shown as A • Increase in comparison with non-treated of >1.7-2.0 fold is shown as B • Increase in comparison with non-treated of 1.2-1.7 fold is shown as C • D means that no increase compared with non-treated cells was detected in this method • ND means “not determined”

SMILES | Range: increase in enzyme activity in comparison with non-treated cells (Enzyme activity assay for compounds of Examples 33-141) | Range: increase in enzyme activity in comparison with non-treated cells (Enzyme activity assay for exemplified compounds)
Cc1c(F)cccc1Nc1cc(N)cc(C(=O)NC2Cc3ccccc3C2)n1 [Example 108, 4-Amino-N-(2,3-dihydro-1H-inden-2-yl)-6-((3-fluoro-2-methylphenyl)amino)picolinamide] | B (Increase in comparison with non-treated of >1.7-2.0 fold is shown as B) | –
Cl.Nc1cc(Nc2cccc(F)c2)nc(C(=O)Nc2ccccc2)c1 [Example 134, 4-Amino-6-((3-fluorophenyl)amino)-N-phenylpicolinamide hydrochloride] | A (Increase in comparison with non-treated of >2.0 fold is shown as A) | –
Nc1nc(Nc2ccccc2O)cc(C(=O)NC2CCc3ccccc3C2)n1 (centres unmarked) [Example 84, 2-Amino-6-((2-hydroxyphenyl)amino)-N-(1,2,3,4-tetrahydronaphthalen-2-yl)pyrimidine-4-carboxamide] | C (Increase in comparison with non-treated of 1.2-1.7 fold is shown as C) | –
Nc1cc(Nc2cccc3c2OCO3)nc(C(=O)N2Cc3ccccc3C2)c1 [Example 95, (4-Amino-6-(benzo[d][1,3]dioxol-4-ylamino)pyridin-2-yl)(isoindolin-2-yl)methanone] | C (Increase in comparison with non-treated of 1.2-1.7 fold is shown as C) | –
Nc1cc(Nc2cccc3c2OCO3)cc(C(=O)Nc2ccccc2)n1 [Example 73, 6-Amino-4-(benzo[d][1,3]dioxol-4-ylamino)-N-phenylpicolinamide] | C (Increase in comparison with non-treated of 1.2-1.7 fold is shown as C) | –
Nc1cc(Nc2ccccc2O)nc(C(=O)NC2Cc3ccccc3C2)c1 [Example 129, 4-Amino-N-(2,3-dihydro-1H-inden-2-yl)-6-((2-hydroxyphenyl)amino)picolinamide] | C (Increase in comparison with non-treated of 1.2-1.7 fold is shown as C) | –
COc1ccccc1Nc1nc(N)c2c(n1)CN(Cc1ccccc1)CC2 [Example 28, 7-Benzyl-N2-(2-methoxyphenyl)-5,6,7,8-tetrahydropyrido[3,4-d]pyrimidine-2,4-diamine] | – | C (Increase in comparison with non-treated of 1.2-1.7 fold is shown as C)
Nc1cc(Nc2ccc(F)cc2O)cc(C(=O)Nc2ccccc2)n1 [Example 78, 6-Amino-4-((4-fluoro-2-hydroxyphenyl)amino)-N-phenylpicolinamide] | B (Increase in comparison with non-treated of >1.7-2.0 fold is shown as B) | –
CN(C(=O)c1cc(N)nc(Nc2ccccc2O)c1)C1CCc2ccccc2C1 (centres unmarked) [Example 42, 2-Amino-6-((2-hydroxyphenyl)amino)-N-methyl-N-(1,2,3,4-tetrahydronaphthalen-2-yl)isonicotinamide] | C (Increase in comparison with non-treated of 1.2-1.7 fold is shown as C) | –
COc1ccccc1Nc1cc(N)cc(C(=O)NC2Cc3ccccc3C2)n1.Cl [Example 133, 4-amino-N-(2,3-dihydro-1H-inden-2-yl)-6-((2-methoxyphenyl)amino)picolinamide hydrochloride] | C (Increase in comparison with non-treated of 1.2-1.7 fold is shown as C) | –
Nc1cc(Nc2ccccc2O)nc(C(=O)NC2Cc3ccccc3C2)n1 [Example 56, 4-Amino-N-(2,3-dihydro-1H-inden-2-yl)-6-((2-hydroxyphenyl)amino)pyrimidine-2-carboxamide] | B (Increase in comparison with non-treated of >1.7-2.0 fold is shown as B) | –
CN(Cc1ccccc1)C(=O)c1nc(N)nc(Nc2cccc(Br)c2)n1 [Example 17, 4-Amino-N-benzyl-6-((3-bromophenyl)amino)-N-methyl-1,3,5-triazine-2-carboxamide] | – | D
COc1ccccc1Nc1cc(N)nc(C(=O)N2Cc3ccccc3C2)c1 [Example 59, (6-Amino-4-((2-methoxyphenyl)amino)pyridin-2-yl)(isoindolin-2-yl)methanone] | C (Increase in comparison with non-treated of 1.2-1.7 fold is shown as C) | –
Nc1cc(Nc2ccccc2O)nc(C(=O)N2Cc3ccccc3C2)c1 [Example 104, (4-Amino-6-((2-hydroxyphenyl)amino)pyridin-2-yl)(isoindolin-2-yl)methanone] | C (Increase in comparison with non-treated of 1.2-1.7 fold is shown as C) | –
Nc1nc(Nc2ccccc2O)cc(C(=O)N2CCN(c3ccccc3)CC2)n1 [Example 130, (2-Amino-6-((2-hydroxyphenyl)amino)pyrimidin-4-yl)(4-phenylpiperazin-1-yl)methanone] | C (Increase in comparison with non-treated of 1.2-1.7 fold is shown as C) | –
COc1ccccc1Nc1cc(N)cc(C(=O)NC2Cc3ccccc3C2)n1 [Example 54, 4-Amino-N-(2,3-dihydro-1H-inden-2-yl)-6-((2-methoxyphenyl)amino)picolinamide] | C (Increase in comparison with non-treated of 1.2-1.7 fold is shown as C) | –
Nc1cc(Nc2ccccc2F)cc(C(=O)Nc2ccccc2)n1 [Example 74, 6-Amino-4-((2-fluorophenyl)amino)-N-phenylpicolinamide] | C (Increase in comparison with non-treated of 1.2-1.7 fold is shown as C) | –
Cl.Nc1cc(Nc2cccc(F)c2)nc(C(=O)NC2Cc3ccccc3C2)c1 [Example 138, 4-Amino-N-(2,3-dihydro-1H-inden-2-yl)-6-((3-fluorophenyl)amino)picolinamide hydrochloride] | A (Increase in comparison with non-treated of >2.0 fold is shown as A) | –
Nc1cc(Nc2ccccc2Cl)nc(C(=O)NC2Cc3ccccc3C2)c1 [Example 101, 4-Amino-6-((2-chlorophenyl)amino)-N-(2,3-dihydro-1H-inden-2-yl)picolinamide] | B (Increase in comparison with non-treated of >1.7-2.0 fold is shown as B) | –
Nc1nc2c(c(Nc3ccccc3O)n1)CCN(Cc1ccccc1)C2 [Example 25, 2-((2-Amino-7-benzyl-5,6,7,8-tetrahydropyrido[3,4-d]pyrimidin-4-yl)amino)phenol] | – | B (Increase in comparison with non-treated of >1.7-2.0 fold is shown as B)
COc1ccccc1Nc1cc(N)nc(C(=O)Nc2ccccc2)c1 [Example 53, 6-Amino-4-((2-methoxyphenyl)amino)-N-phenylpicolinamide] | C (Increase in comparison with non-treated of 1.2-1.7 fold is shown as C) | –
Nc1cc(C(=O)NC2CCc3ccccc3C2)nc(Nc2ccccc2O)n1 (centres unmarked) [Example 12, 6-Amino-2-((2-hydroxyphenyl)amino)-N-(1,2,3,4-tetrahydronaphthalen-2-yl)pyrimidine-4-carboxamide] | – | B (Increase in comparison with non-treated of >1.7-2.0 fold is shown as B)
Nc1cc(Nc2ccccc2F)nc(C(=O)Nc2ccccc2)c1 [Example 75, 4-Amino-6-((2-fluorophenyl)amino)-N-phenylpicolinamide] | C (Increase in comparison with non-treated of 1.2-1.7 fold is shown as C) | –
